The subject of one test is PC-12. The experiment in a line: Neuroprotective activity in rat PC12 cells at 1 uM by lactate dehydrogenase assay. It is filed as functional.
For test [1], the target named is T1, Protein deacetylase HDAC6 (Homo sapiens, UniProt Q9UBN7).
T1 sequence (Q9UBN7 whole entry): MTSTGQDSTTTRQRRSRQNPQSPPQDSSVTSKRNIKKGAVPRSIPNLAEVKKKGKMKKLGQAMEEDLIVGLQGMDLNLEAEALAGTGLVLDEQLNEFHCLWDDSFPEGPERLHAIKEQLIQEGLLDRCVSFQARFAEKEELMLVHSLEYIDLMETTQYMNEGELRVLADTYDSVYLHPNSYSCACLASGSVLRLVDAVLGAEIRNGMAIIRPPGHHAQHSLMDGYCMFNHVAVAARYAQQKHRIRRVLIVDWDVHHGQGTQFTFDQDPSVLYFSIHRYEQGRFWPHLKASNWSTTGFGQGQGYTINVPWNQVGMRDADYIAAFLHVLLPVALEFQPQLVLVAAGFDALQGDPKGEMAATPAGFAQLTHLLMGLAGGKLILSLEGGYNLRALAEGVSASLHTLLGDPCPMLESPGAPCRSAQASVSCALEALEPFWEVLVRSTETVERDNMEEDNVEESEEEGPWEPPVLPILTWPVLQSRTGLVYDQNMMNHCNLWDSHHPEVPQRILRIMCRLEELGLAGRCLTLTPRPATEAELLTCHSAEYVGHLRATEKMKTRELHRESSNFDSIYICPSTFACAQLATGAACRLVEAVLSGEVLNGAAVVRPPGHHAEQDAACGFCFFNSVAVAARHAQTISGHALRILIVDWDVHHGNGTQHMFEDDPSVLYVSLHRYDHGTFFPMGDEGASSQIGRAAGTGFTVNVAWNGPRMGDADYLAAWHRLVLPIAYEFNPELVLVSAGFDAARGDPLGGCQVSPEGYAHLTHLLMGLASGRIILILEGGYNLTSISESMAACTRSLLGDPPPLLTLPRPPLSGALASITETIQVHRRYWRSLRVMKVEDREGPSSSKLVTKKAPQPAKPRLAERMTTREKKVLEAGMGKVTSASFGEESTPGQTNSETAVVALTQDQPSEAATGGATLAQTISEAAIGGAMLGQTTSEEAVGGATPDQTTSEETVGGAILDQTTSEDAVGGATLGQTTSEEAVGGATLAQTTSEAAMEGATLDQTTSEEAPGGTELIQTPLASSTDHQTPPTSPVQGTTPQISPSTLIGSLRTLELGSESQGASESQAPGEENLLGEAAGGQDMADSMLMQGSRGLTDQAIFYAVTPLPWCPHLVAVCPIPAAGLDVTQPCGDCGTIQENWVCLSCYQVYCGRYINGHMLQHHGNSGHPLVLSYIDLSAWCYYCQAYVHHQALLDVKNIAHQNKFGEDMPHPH
The experiment in a line: Inhibition of HDAC6.

Where only a bound is given, the exact number is not on record here.

In the test with PC-12, `O=C(NO)c1ccc2c(c1)CN(C(=O)/C(=C/c1ccccc1)c1ccccc1)CC2` registered an Activity of 36.6%. Moreover, the IC50 in test [1] is < 1 nM.
As for `O=C(NO)c1ccc2c(c1)CN(C(=O)/C(=C/c1ccc(F)cc1F)c1ccc(F)cc1)CC2`, the Activity in the test with PC-12 was 56%. Moreover, the concentration for half-maximal inhibition (IC50) in test [1] was < 1 nM.
`COc1cc(/C=C(/C(=O)N2CCc3ccc(C(=O)NO)cc3C2)c2ccc(F)cc2)ccc1F` had an Activity in the test with PC-12 of 67.2%. Further, the 50% inhibitory concentration (IC50) in test [1] is < 1 nM.
Molecule `COc1ccc(/C=C(/C(=O)N2CCc3ccc(C(=O)NO)cc3C2)c2ccccc2F)cc1OC` returned an Activity in the test on PC-12 of 100%. Besides, the IC50 in test [1] was < 1 nM.
`O=C(NO)c1ccc2c(c1)CN(C(=O)/C(=C/c1ccccc1)c1cccc(Cl)c1)CC2` came in with an Activity in the test with PC-12 of 77.8%. Besides, the half-inhibitory concentration (IC50) in test [1] was < 1 nM.
`Cc1ccc(/C(=C\c2ccccc2)C(=O)N2CCc3ccc(C(=O)NO)cc3C2)cc1`: the Activity in the test with PC-12 amounted to 68.7%. Further, the IC50 in test [1] is < 1 nM.
`O=C(NO)c1ccc2c(c1)CN(C(=O)/C(=C/c1cccs1)c1ccc(F)cc1)CC2` yielded an Activity with PC-12 of 71.8%. The IC50 in test [1] is < 1 nM.
Molecule `COc1ccc(/C=C(/C(=O)N2CCc3ccc(C(=O)NO)cc3C2)c2ccc(F)cc2)c(OC)c1` had an Activity with PC-12 of 38%. Also, the 50% inhibitory concentration (IC50) in test [1] is < 1 nM.
In the same order, the values of `COc1ccc(/C=C(/C(=O)N2CCc3ccc(C(=O)NO)cc3C2)c2ccccc2)cc1` are 55% and < 1 nM.
The corresponding values for `Cc1ccc(/C(=C\c2ccc(F)cc2)C(=O)N2CCc3ccc(C(=O)NO)cc3C2)cc1` are 100% and < 1 nM.

Usually IC50 stands for the concentration that inhibits the measured activity by half. A lower IC50 goes with higher potency.

The values are drawn from ChEMBL document CHEMBL2150874, “Novel and selective inhibitors of histone deacetylase: patent highlight” (ACS Med Chem Lett, 2012).
